From US9750788B2 (priority 2013, dated 2017)
In brackets after ≈: the same amount, converted by molar mass. Square brackets hold non-standard residues; d marks the D form. Peptide text beside a SMILES is read from it. Aib = CC(C)(N)C(=O)O

Assays:
in vivo = conditions: mouse, sc, 1 mg/kg
Description: Mice were dosed 1 mg/kg subcutaneously (s.c.). The mice were sacrificed and blood samples were collected after 0.25, 0.5, 1, 2, 4, 8, 16 and 24 hours post application. Plasma samples were analyzed after protein precipitation via liquid chromatography mass spectrometry (LC/MS). PK parameters and half-life were calculated using WinonLin Version 5.2.1 (non-compartment model).

[1] = system: blood glucose of diabetic db/db mice; experiment: Glucose lowering in female diabetic dbdb-mice; assay type: in vivo; conditions: 100 μg/kg s.c.
Description: Female diabetic dbdb-mice (BKS.Cg− +Leprdb/+Leprdb/OlaHsd) 10 weeks of age at study start were used. Mice were habituated to feeding and housing conditions for at least 2 weeks. 7 days prior to study start, HbA1c were determined to allocate mice to groups, aiming to spread low, medium and high HbA1c-values and in consequence the group-means (n=8), as equally as possible. On the day of study, food was removed, directly before sampling for baseline glucose assessment (t=0 min) Immediately afterwards, compounds or vehicle (phosphor buffered saline, PBS) were administered subcutaneously, 100 μg/kg, 10 ml/kg. Afterwards, blood samples were drawn by tail tip incision at 15, 30, 60, 90, 120, 150, 180, 240, 360, 480 min and 24 h. Food was re-offered after the 480 min-sampling. Data were analysed by 2-W-ANOVA on repeated measurements, followed by Dunnett's test as post-hoc assessment, level of significance p<0.05.

physchem = assay type: physicochemical
[2] = assay type: physicochemical; conditions: buffer, 168 h
From the text: The chemical stability is expressed as “% remaining peptide”.

Compound: CC[C@H](C)[C@H](NC(=O)[C@H](Cc1ccccc1)NC(=O)[C@H](CC(C)C)NC(=O)[C@H](CCCNC(=N)N)NC(=O)[C@@H](NC(=O)[C@H](C)NC(=O)[C@H](CCC(=O)O)NC(=O)[C@H](CCCCN)NC(=O)[C@H](CCC(=O)O)NC(=O)[C@H](CC(C)C)NC(=O)[C@H](CC(C)C)NC(=O)[C@H](CCCCN)NC(=O)[C@H](CO)NC(=O)[C@H](CC(C)C)NC(=O)[C@H](CC(=O)O)NC(=O)[C@H](CO)NC(=O)[C@@H](NC(=O)[C@H](Cc1ccccc1)NC(=O)[C@@H](NC(=O)CNC(=O)[C@H](CCC(=O)O)NC(=O)C(C)(C)NC(=O)[C@@H](N)Cc1ccc(O)cc1)[C@@H](C)O)[C@@H](C)O)C(C)C)C(=O)N[C@@H](CCC(=O)O)C(=O)N[C@@H](Cc1c[nH]c2ccccc12)C(=O)N[C@@H](CC(C)C)C(=O)N[C@@H](CCCCN)C(=O)N[C@@H](C)C(=O)NCC(=O)NCC(=O)N1CCC[C@H]1C(=O)N[C@@H](CO)C(=O)N[C@@H](CO)C(=O)NCC(=O)N[C@@H](C)C(=O)N1CCC[C@H]1C(=O)N1CCC[C@H]1C(=O)N1CCC[C@H]1C(=O)N[C@@H](CO)C(N)=O [SEQ ID NO: 8, Y-Aib-EGTFTSDLSKLLEKEAVRLFIEWLKAGGPSSGAPPPS-NH2] (H-Y[Aib]EGTFTSDLSKLLEKEAVRLFIEWLKAGGPSSGAPPPS-NH2)
- Cmax (in vivo): 2980 ng/mL
- half-life (in vivo): 1.9 h
- maximal effect, glucose reduction ([1]; at t=30 min): ~13 mmol/L
- reduction of glucose compared to vehicle control ([1]; from t=30 min to 24 h, p<0.05): statistical significant reduction of glucose
- solubility at 2 h (physchem; pH 4.5): 320 µg/mL (≈ 76.9 µM)
- solubility at 2 h (physchem; pH 7.4): 270 µg/mL (≈ 64.8 µM)
- Stability (pH 4.5), % remaining peptide ([2]; pH 4.5): 100%
- Stability (pH 7.4), % remaining peptide [2]: 100%

Compound: CC[C@H](C)[C@H](NC(=O)[C@H](Cc1ccccc1)NC(=O)[C@H](CC(C)C)NC(=O)[C@H](CCCNC(=N)N)NC(=O)[C@@H](NC(=O)[C@H](C)NC(=O)[C@H](CCC(=O)O)NC(=O)[C@H](CCC(=O)O)NC(=O)[C@H](CCC(=O)O)NC(=O)[C@H](CC(C)C)NC(=O)[C@H](CC(C)C)NC(=O)[C@H](CCCCN)NC(=O)[C@H](CO)NC(=O)[C@H](CC(C)C)NC(=O)[C@H](CC(=O)O)NC(=O)[C@H](CO)NC(=O)[C@@H](NC(=O)[C@H](Cc1ccccc1)NC(=O)[C@@H](NC(=O)CNC(=O)[C@H](CCC(=O)O)NC(=O)C(C)(C)NC(=O)[C@@H](N)Cc1ccc(O)cc1)[C@@H](C)O)[C@@H](C)O)C(C)C)C(=O)N[C@@H](CCC(=O)O)C(=O)N[C@@H](Cc1c[nH]c2ccccc12)C(=O)N[C@@H](CC(C)C)C(=O)N[C@@H](CCCCN)C(=O)N[C@@H](C)C(=O)NCC(=O)NCC(=O)N1CCC[C@H]1C(=O)N[C@@H](CO)C(=O)N[C@@H](CO)C(=O)NCC(=O)N[C@@H](C)C(=O)N1CCC[C@H]1C(=O)N1CCC[C@H]1C(=O)N1CCC[C@H]1C(=O)N[C@@H](CO)C(N)=O [SEQ ID NO: 10, Y-Aib-EGTFTSDLSKLLEEEAVRLFIEWLKAGGPSSGAPPPS-NH2] (H-Y[Aib]EGTFTSDLSKLLEEEAVRLFIEWLKAGGPSSGAPPPS-NH2)
- solubility at 2 h (physchem; pH 7.4): 990 µg/mL (≈ 238 µM)
- Stability (pH 7.4), % remaining peptide [2]: 100%
